Results reported in article PMC4066754 (2014).
Values belong to the molecule of their own block, whether it stands above or below them.

What was measured:
[1] = tested on: template 8cac:primer, no downstream-binding oligonucleotide (DNA, duplex, 3'-amino-2',3'-dideoxynucleoside at primer 3' end) CTGGATTTCCTCAGCACCGTGCG/CGCACGG; assay: inhibition of enzyme-free primer extension (MALDI-ToF kinetics); settings: 400 mM NaCl, 80 mM MgCl2; 200 mM HEPES, pH 8.9, 10°C; competes with 7.2 mM TMP-OAt; calculated from Kinh
[2] = tested on: template 8tat:primer, no downstream-binding oligonucleotide (DNA, duplex, 3'-amino-2',3'-dideoxynucleoside at primer 3' end) CTGGATTTCCTCAGTATCGTGCG/CGCACGA; assay: as above; settings: 400 mM NaCl, 80 mM MgCl2; 200 mM HEPES, pH 8.9, 20°C; competes with 7.2 mM TMP-OAt; calculated from Kinh
[3] = tested on: template 8aaa:primer + downstream-binding oligonucleotide (DNA, duplex, 3'-amino-2',3'-dideoxynucleoside at primer 3' end) CTGGATTTCCTCAGAAACGTGCG/CGCACGT/TCTGAGGAAATCCA; assay: as above; settings: 400 mM NaCl, 80 mM MgCl2; 200 mM HEPES, pH 8.9, 20°C; competes with 7.2 mM TMP-OAt; calculated from Kinh
[4] = tested on: hairpin 4a (DNA, hairpin, hexaethylene glycol (HEG) loop linker between 4 and 5) ACAGCTG; assay: 1H NMR titration; settings: 400 mM NaCl, 80 mM MgCl2; 200 mM phosphate in D2O, pH 8.9, 20°C, 0.5 mM hairpin
[5] = tested on: hairpin 3a (DNA, hairpin, hexaethylene glycol (HEG) loop linker between 6 and 7) CTATGCGCA; assay: 1H NMR titration; settings: 400 mM NaCl, 80 mM MgCl2; 200 mM phosphate in D2O, pH 8.9, 20°C, 0.5 mM hairpin
[6] = tested on: hairpin 2a (DNA, hairpin, hexaethylene glycol (HEG) loop linker between 4 and 5) ATGCGCA; assay: 1H NMR titration; settings: 400 mM NaCl, 80 mM MgCl2; 200 mM phosphate in D2O, pH 8.9, 20°C, 0.5 mM hairpin
[7] = tested on: template 8gag:primer + downstream-binding oligonucleotide (DNA, duplex, 3'-amino-2',3'-dideoxynucleoside at primer 3' end) CTGGATTTCCTCAGGAGCGTGCG/CGCACGC/CCTGAGGAAATCCA; assay: inhibition of enzyme-free primer extension (MALDI-ToF kinetics); settings: 400 mM NaCl, 80 mM MgCl2; 200 mM HEPES, pH 8.9, 20°C; competes with 7.2 mM TMP-OAt; calculated from Kinh
[8] = tested on: template 8tat:primer + downstream-binding oligonucleotide (DNA, duplex, 3'-amino-2',3'-dideoxynucleoside at primer 3' end) CTGGATTTCCTCAGTATCGTGCG/CGCACGA/ACTGAGGAAATCCA; assay: as above; settings: 400 mM NaCl, 80 mM MgCl2; 200 mM HEPES, pH 8.9, 20°C; competes with 7.2 mM TMP-OAt; calculated from Kinh
[9] = tested on: template 8cac:primer + downstream-binding oligonucleotide (DNA, duplex, 3'-amino-2',3'-dideoxynucleoside at primer 3' end) CTGGATTTCCTCAGCACCGTGCG/CGCACGG/GCTGAGGAAATCCA; assay: as above; settings: 400 mM NaCl, 80 mM MgCl2; 200 mM HEPES, pH 8.9, 20°C; competes with 7.2 mM TMP-OAt; calculated from Kinh
[10] = tested on: RNA hairpin 6c (RNA, hairpin, hexaethylene glycol (HEG) loop linker between 4 and 5) CCAGCUG; assay: 1H NMR titration; settings: 400 mM NaCl, 80 mM MgCl2; 200 mM phosphate in D2O, pH 7, 20°C, 2 mM hairpin
[11] = tested on: template 8tct:primer, no downstream-binding oligonucleotide (DNA, duplex, 3'-amino-2',3'-dideoxynucleoside at primer 3' end) CTGGATTTCCTCAGTCTCGTGCG/CGCACGA; assay: inhibition of enzyme-free primer extension (MALDI-ToF kinetics); settings: 400 mM NaCl, 80 mM MgCl2; 200 mM HEPES, pH 8.9, 20°C; competes with 3.6 mM dGMP-OAt; calculated from Kinh
[12] = tested on: template 8aca:primer + downstream-binding oligonucleotide (DNA, duplex, 3'-amino-2',3'-dideoxynucleoside at primer 3' end) CTGGATTTCCTCAGACACGTGCG/CGCACGT/TCTGAGGAAATCCA; assay: as above; settings: 400 mM NaCl, 80 mM MgCl2; 200 mM HEPES, pH 8.9, 20°C; competes with 3.6 mM dGMP-OAt; calculated from Kinh
[13] = tested on: template 8ccc:primer + downstream-binding oligonucleotide (DNA, duplex, 3'-amino-2',3'-dideoxynucleoside at primer 3' end) CTGGATTTCCTCAGCCCCGTGCG/CGCACGG/GCTGAGGAAATCCA; assay: as above; settings: 400 mM NaCl, 80 mM MgCl2; 200 mM HEPES, pH 8.9, 20°C; competes with 3.6 mM dGMP-OAt; calculated from Kinh
[14] = tested on: template 8gcg:primer + downstream-binding oligonucleotide (DNA, duplex, 3'-amino-2',3'-dideoxynucleoside at primer 3' end) CTGGATTTCCTCAGGCGCGTGCG/CGCACGC/CCTGAGGAAATCCA; assay: as above; settings: 400 mM NaCl, 80 mM MgCl2; 200 mM HEPES, pH 8.9, 20°C; competes with 3.6 mM dGMP-OAt; calculated from Kinh
[15] = tested on: hairpin 3c (DNA, hairpin, hexaethylene glycol (HEG) loop linker between 6 and 7) CTCTGCGCA; assay: 1H NMR titration; settings: 400 mM NaCl, 80 mM MgCl2; 200 mM phosphate in D2O, pH 8.9, 20°C, 0.5 mM hairpin
[16] = tested on: template 8tct:primer + downstream-binding oligonucleotide (DNA, duplex, 3'-amino-2',3'-dideoxynucleoside at primer 3' end) CTGGATTTCCTCAGTCTCGTGCG/CGCACGA/ACTGAGGAAATCCA; assay: inhibition of enzyme-free primer extension (MALDI-ToF kinetics); settings: 400 mM NaCl, 80 mM MgCl2; 200 mM HEPES, pH 8.9, 20°C; competes with 3.6 mM dGMP-OAt; calculated from Kinh
[17] = tested on: hairpin 4t (DNA, hairpin, hexaethylene glycol (HEG) loop linker between 4 and 5) TCAGCTG; assay: 1H NMR titration; settings: 400 mM NaCl, 80 mM MgCl2, 200 mM phosphate in D2O, pH 8.9, 20°C, 0.5 mM hairpin
[18] = tested on: template 8ccc:primer, no downstream-binding oligonucleotide (DNA, duplex, 3'-amino-2',3'-dideoxynucleoside at primer 3' end) CTGGATTTCCTCAGCCCCGTGCG/CGCACGG; assay: inhibition of enzyme-free primer extension (MALDI-ToF kinetics); settings: 400 mM NaCl, 80 mM MgCl2; 200 mM HEPES, pH 8.9, 10°C; competes with 3.6 mM dGMP-OAt; calculated from Kinh
[19] = tested on: hairpin 2c (DNA, hairpin, hexaethylene glycol (HEG) loop linker between 4 and 5) CTGCGCA; assay: 1H NMR titration; settings: 400 mM NaCl, 80 mM MgCl2; 200 mM phosphate in D2O, pH 8.9, 20°C, 0.5 mM hairpin
[20] = tested on: template 8ctc:primer, no downstream-binding oligonucleotide (DNA, duplex, 3'-amino-2',3'-dideoxynucleoside at primer 3' end) CTGGATTTCCTCAGCTCCGTGCG/CGCACGG; assay: inhibition of enzyme-free primer extension (MALDI-ToF kinetics); settings: 400 mM NaCl, 80 mM MgCl2; 200 mM HEPES, pH 8.9, 10°C; competes with 3.6 mM dAMP-OAt; calculated from Kinh
[21] = tested on: template 8ctc:primer + downstream-binding oligonucleotide (DNA, duplex, 3'-amino-2',3'-dideoxynucleoside at primer 3' end) CTGGATTTCCTCAGCTCCGTGCG/CGCACGG/GCTGAGGAAATCCA; assay: as above; settings: 400 mM NaCl, 80 mM MgCl2; 200 mM HEPES, pH 8.9, 20°C; competes with 3.6 mM dAMP-OAt; calculated from Kinh
[22] = tested on: template 8gtg:primer + downstream-binding oligonucleotide (DNA, duplex, 3'-amino-2',3'-dideoxynucleoside at primer 3' end) CTGGATTTCCTCAGGTGCGTGCG/CGCACGC/CCTGAGGAAATCCA; assay: as above; settings: 400 mM NaCl, 80 mM MgCl2; 200 mM HEPES, pH 8.9, 20°C; competes with 3.6 mM dAMP-OAt; calculated from Kinh
[23] = tested on: template 8ttt:primer, no downstream-binding oligonucleotide (DNA, duplex, 3'-amino-2',3'-dideoxynucleoside at primer 3' end) CTGGATTTCCTCAGTTTCGTGCG/CGCACGA; assay: as above; settings: 400 mM NaCl, 80 mM MgCl2; 200 mM HEPES, pH 8.9, 20°C; competes with 3.6 mM dAMP-OAt; calculated from Kinh
[24] = tested on: template 8ttt:primer + downstream-binding oligonucleotide (DNA, duplex, 3'-amino-2',3'-dideoxynucleoside at primer 3' end) CTGGATTTCCTCAGTTTCGTGCG/CGCACGA/ACTGAGGAAATCCA; assay: as above; settings: 400 mM NaCl, 80 mM MgCl2; 200 mM HEPES, pH 8.9, 20°C; competes with 3.6 mM dAMP-OAt; calculated from Kinh
[25] = tested on: template 8ata:primer + downstream-binding oligonucleotide (DNA, duplex, 3'-amino-2',3'-dideoxynucleoside at primer 3' end) CTGGATTTCCTCAGATACGTGCG/CGCACGT/TCTGAGGAAATCCA; assay: as above; settings: 400 mM NaCl, 80 mM MgCl2; 200 mM HEPES, pH 8.9, 20°C; competes with 3.6 mM dAMP-OAt; calculated from Kinh
[26] = tested on: template 8aga:primer + downstream-binding oligonucleotide (DNA, duplex, 3'-amino-2',3'-dideoxynucleoside at primer 3' end) CTGGATTTCCTCAGAGACGTGCG/CGCACGT/TCTGAGGAAATCCA; assay: as above; settings: 400 mM NaCl, 80 mM MgCl2; 200 mM HEPES, pH 8.9, 20°C; competes with 3.6 mM dCMP-OAt; calculated from Kinh
[27] = tested on: template 8tgt:primer, no downstream-binding oligonucleotide (DNA, duplex, 3'-amino-2',3'-dideoxynucleoside at primer 3' end) CTGGATTTCCTCAGTGTCGTGCG/CGCACGA; assay: as above; settings: 400 mM NaCl, 80 mM MgCl2; 200 mM HEPES, pH 8.9, 20°C; competes with 3.6 mM dCMP-OAt; calculated from Kinh
[28] = tested on: template 8cgc:primer + downstream-binding oligonucleotide (DNA, duplex, 3'-amino-2',3'-dideoxynucleoside at primer 3' end) CTGGATTTCCTCAGCGCCGTGCG/CGCACGG/GCTGAGGAAATCCA; assay: as above; settings: 400 mM NaCl, 80 mM MgCl2; 200 mM HEPES, pH 8.9, 20°C; competes with 3.6 mM dCMP-OAt; calculated from Kinh
[29] = tested on: hairpin 2g (DNA, hairpin, hexaethylene glycol (HEG) loop linker between 4 and 5) GTGCGCA; assay: 1H NMR titration; settings: 400 mM NaCl, 80 mM MgCl2; 200 mM phosphate in D2O, pH 8.9, 20°C, 0.5 mM hairpin
[30] = tested on: template 8ggg:primer + downstream-binding oligonucleotide (DNA, duplex, 3'-amino-2',3'-dideoxynucleoside at primer 3' end) CTGGATTTCCTCAGGGGCGTGCG/CGCACGC/CCTGAGGAAATCCA; assay: inhibition of enzyme-free primer extension (MALDI-ToF kinetics); settings: 400 mM NaCl, 80 mM MgCl2; 200 mM HEPES, pH 8.9, 20°C; competes with 3.6 mM dCMP-OAt; calculated from Kinh
[31] = tested on: template 8tgt:primer + downstream-binding oligonucleotide (DNA, duplex, 3'-amino-2',3'-dideoxynucleoside at primer 3' end) CTGGATTTCCTCAGTGTCGTGCG/CGCACGA/ACTGAGGAAATCCA; assay: as above; settings: 400 mM NaCl, 80 mM MgCl2; 200 mM HEPES, pH 8.9, 20°C; competes with 3.6 mM dCMP-OAt; calculated from Kinh
[32] = tested on: template 8cgc:primer, no downstream-binding oligonucleotide (DNA, duplex, 3'-amino-2',3'-dideoxynucleoside at primer 3' end) CTGGATTTCCTCAGCGCCGTGCG/CGCACGG; assay: as above; settings: 400 mM NaCl, 80 mM MgCl2; 200 mM HEPES, pH 8.9, 10°C; competes with 3.6 mM dCMP-OAt; calculated from Kinh

Kd [1]: 144 mM
Kd [2]: 200 mM
Kd [3]: 77 mM
Kd [4]: 241 ± 12 mM
Kd [5]: 284 ± 44 mM
Kd [6]: 261 ± 47 mM
Kd [7]: 83 mM
Kd [8]: 59 mM
Kd [9]: 113 mM
Structure (SMILES): Cc1cn([C@H]2C[C@H](O)[C@@H](COP(=O)(O)O)O2)c(=O)[nH]c1=O

Kd [10]: 14 mM
Structure (SMILES): Nc1nc2c(ncn2[C@@H]2O[C@H](COP(=O)(O)O)[C@@H](O)[C@H]2O)c(=O)[nH]1

Kd [11]: 15 mM
Kd [12]: 5 mM
Kd [13]: 7 mM
Kd [14]: 10 mM
Kd [15]: 16 mM
Kd [16]: 2 mM
Kd [17]: 100 mM
Kd [18]: 5 mM
Kd [19]: 9.9 ± 0.9 mM
Structure (SMILES): Nc1nc2c(ncn2[C@H]2C[C@H](O)[C@@H](COP(=O)(O)O)O2)c(=O)[nH]1

Kd [20]: 7 mM
Kd [21]: 7 mM
Kd [22]: 5 mM
Kd [23]: 17 mM
Kd [17]: 38 mM
Kd [24]: 5 mM
Kd [25]: 5 mM
Structure (SMILES): Nc1ncnc2c1ncn2[C@H]1C[C@H](O)[C@@H](COP(=O)(O)O)O1

Kd [26]: 15 mM
Kd [27]: 19 mM
Kd [28]: 6 mM
Kd [29]: 40 mM
Kd [30]: 18 mM
Kd ([17]; no saturation up to 1 M dCMP): > ≥2000 mM
Kd [31]: 5 mM
Kd [32]: 30 mM
Structure (SMILES): Nc1ccn([C@H]2C[C@H](O)[C@@H](COP(=O)(O)O)O2)c(=O)n1
